“And” between values parts separate entries of the source, which are not always exact repeats. Equal values may be shown once.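 Interpolation was linear, between the two tested concentrations surrounding the appropriate level; five concentrations were tested over 48 hours in 96-well plates. At the GI50, growth is halved. At the TGI there is no net growth.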

In one experiment the test system is 786-0 renal. The experiment in a line: DTP human tumour cell line panel, 48 h.
For the molecule `COc1cccc(-n2c3nc(=O)n(C)c(=O)c-3nc3ccccc32)c1`, the TGI is more than 100 µM.
On the same count and under the same terms, to `CC(C)(C=O)CC(C#N)/C(=N\NC(N)=O)C(=O)Nc1ccccc1C(N)=O` (stereo not given) belongs more than 100 µM.
Take `Cc1cc(C)c(C2[C@H]3C(=O)N(c4ccc(Cc5ccc(N6C(=O)[C@@H]7ON(c8ccccc8)C(c8c(C)cc(C)cc8C)[C@@H]7C6=O)cc5)cc4)C(=O)[C@H]3ON2c2ccccc2)c(C)c1` (stereo not given in full): the total growth inhibition concentration (TGI) is more than 100 µM.
The molecule `COC(=O)OCC1OC(N2C(=O)NC(=O)C(Br)C2N=[N+]=[N-])CC1OC(=O)OC` (stereo not given) registered a concentration for total growth inhibition (TGI) of more than 100 µM.
The same measure, in the same setting: next, `CC12CCCCC1(C)C2Sc1ccccc1` (stereo not given): more than 100 µM; `CCCCOC(=O)NC(=O)c1cn(CCCOC(=O)NCCCCCCNC(=O)OCCCn2cc(C(=O)NC(=O)OCCCC)c(=O)[nH]c2=O)c(=O)[nH]c1=O`: more than 100 µM.
For the molecule `C[C@@]12CCCc3coc(c31)C(=O)c1cc3c(cc12)C(=O)C=CC3=O`, the GI50 is more than 1 µM; the total growth inhibition concentration (TGI) is > 1 µM and 30.7 µM.
In turn, `COc1cc(C)c2c(c1C)OC(=O)c1c(C)c(Cl)c(O)c(C=O)c1O2` showed a TGI of 24.6 µM. That is a double-digit micromolar value.
For `C=CCNC(=O)N(CCC)CCCCC(NC(C)=O)C(=O)NCc1ccccc1` (stereo not given), the TGI was more than 100 µM.
As for `COC(=O)/C(C=O)=C/Sc1ccccc1`, the total growth inhibition concentration (TGI) is 30.2 µM.
The same measure, in the same setting: next, `Nc1ccn(C2(CO)C=C(CO)C(O)C2O)c(=O)n1` (stereo not given): more than 25.8 µM; `C=C1C[C@]23CCC4C(C)(C)C(=O)CC[C@]4(C)C2C[C@H]1C(O)C3=O` (stereo not given in full): more than 75 µM; `CC1(C)O/C(=C\c2ccccc2)C(=O)/C(=C/c2ccccc2)O1`: more than 100 µM.
The same measure, in the same setting: to `O=C1CC2C(=O)N(Cc3ccccc3)C1C=C2S(=O)(=O)c1ccccc1` (stereo not given) belongs more than 100 µM.
For `N.N.N.N.[Cl-].[Co+3].[N-]=[N+]=[N-].[N-]=[N+]=[N-]`, the GI50 is more than 100 µM and the total growth inhibition concentration (TGI) was more than 100 µM.
`O=c1[nH]c2cc(Cl)ccc2nc1/C(=N\O)C(O)c1ccc(Cl)cc1Cl` (stereo not given) registered a TGI of more than 100 µM.
On the same count and under the same terms, next, `CC(C)CCCC(C)[C@H]1CCC2[C@H]3C(CC[C@@]21C)[C@@]1(C)CCC=C[C@]12C[C@@H]2[C@@H]3O` (stereo not given in full): more than 100 µM; `Nc1nc(CCl)nc(Nc2ccccc2)n1`: 4.35 µM; `CN[C@@H](C)[C@H](NC)c1ccccc1`: more than 100 µM.
Still for that read-out and setting: next, `C=C1C(=O)O[C@H]2/C=C(/C)C3=CC(=O)[C@@](C)(C[C@@H](OC(=O)/C(C)=C\C)C12)O3` (stereo not given in full): 2.22 µM.
On the same count and under the same terms, next, `O=S1OC2(c3ccccc3-c3ccccc32)c2ccccc21` (stereo not given): more than 100 µM.

A further experiment concerns SF-295 CNS. The experiment in a line: DTP human tumour cell line panel, 48 h.
Consider `COc1cc2ccc3c4cc(OC)c(OC(C)C)cc4cnc3c2cc1OC`, for which the TGI was more than 100 µM.
The same measure, in the same setting: next, `CN1NC(=Nc2ccccc2)Sc2c1cnn(-c1ccccc1)c2=O`: more than 100 µM.
Regarding `C1C[OH+]CCNCC[OH+]CC[OH+]CCN1.[Cl-].[Pt+4]`, the GI50 was more than 100 µM and the TGI is more than 100 µM.
`CC(=O)c1sc(-c2nc(C)c(C(=O)/C=C\c3ccc(/C=C\C(=O)c4sc(-c5nc(C)c(C(C)=O)s5)nc4C)cc3)s2)nc1C` displayed a TGI of more than 100 µM.
The same measure, in the same setting: next, `COC(=O)/C(C)=C/[N+](=O)[O-]`: 30.3 µM; `Cc1ccc(C2(O)CC(c3ccc([N+](=O)[O-])o3)=NN2C(=O)COc2ccc(Cl)cc2)cc1` (stereo not given): 27.6 µM; `CC1=NN(C(=O)CC(=O)N(C(=O)c2ccccc2Cl)c2ccc(C)cc2)C(=O)C1N=Nc1ccc([N+](=O)[O-])cc1` (stereo not given): more than 100 µM.
The same measure, in the same setting: next, `COc1cccc(-n2c3nc(=O)n(C)c(=O)c-3nc3ccccc32)c1`: 29.2 µM.
Still for that read-out and setting: to `CC(C)(C=O)CC(C#N)/C(=N\NC(N)=O)C(=O)Nc1ccccc1C(N)=O` (stereo not given) belongs more than 100 µM; to `Cc1cc(C)c(C2[C@H]3C(=O)N(c4ccc(Cc5ccc(N6C(=O)[C@@H]7ON(c8ccccc8)C(c8c(C)cc(C)cc8C)[C@@H]7C6=O)cc5)cc4)C(=O)[C@H]3ON2c2ccccc2)c(C)c1` (stereo not given in full), more than 100 µM; to `COC(=O)OCC1OC(N2C(=O)NC(=O)C(Br)C2N=[N+]=[N-])CC1OC(=O)OC` (stereo not given), more than 100 µM.
On to `CC12CCCCC1(C)C2Sc1ccccc1` (stereo not given), for which the concentration for total growth inhibition (TGI) is more than 100 µM.
The same measure, in the same setting: to `CCCCOC(=O)NC(=O)c1cn(CCCOC(=O)NCCCCCCNC(=O)OCCCn2cc(C(=O)NC(=O)OCCCC)c(=O)[nH]c2=O)c(=O)[nH]c1=O` belongs more than 100 µM; to `C[C@@]12CCCc3coc(c31)C(=O)c1cc3c(cc12)C(=O)C=CC3=O`, more than 1 µM.
Molecule `C=CCNC(=O)N(CCC)CCCCC(NC(C)=O)C(=O)NCc1ccccc1` (stereo not given) yielded a TGI of more than 100 µM.
Still for that read-out and setting: to `COC(=O)/C(C=O)=C/Sc1ccccc1` belongs more than 100 µM; to `C=C1C[C@]23CCC4C(C)(C)C(=O)CC[C@]4(C)C2C[C@H]1C(O)C3=O` (stereo not given in full), more than 75 µM.
Molecule `CC1(C)O/C(=C\c2ccccc2)C(=O)/C(=C/c2ccccc2)O1` yielded a concentration for total growth inhibition (TGI) of more than 100 µM.
Molecule `O=C1CC2C(=O)N(Cc3ccccc3)C1C=C2S(=O)(=O)c1ccccc1` (stereo not given) registered a TGI of more than 100 µM.
On to `N.N.N.N.[Cl-].[Co+3].[N-]=[N+]=[N-].[N-]=[N+]=[N-]`, for which the GI50 was more than 100 µM and the total growth inhibition concentration (TGI) is more than 100 µM.
The molecule `O=c1[nH]c2cc(Cl)ccc2nc1/C(=N\O)C(O)c1ccc(Cl)cc1Cl` (stereo not given) returned a TGI of more than 100 µM.
The same measure, in the same setting: next, `CC(C)CCCC(C)[C@H]1CCC2[C@H]3C(CC[C@@]21C)[C@@]1(C)CCC=C[C@]12C[C@@H]2[C@@H]3O` (stereo not given in full): more than 100 µM.
Molecule `Nc1nc(CCl)nc(Nc2ccccc2)n1` registered a TGI of 81.7 µM.
On the same count and under the same terms, to `CN[C@@H](C)[C@H](NC)c1ccccc1` belongs more than 100 µM; to `C=C1C(=O)O[C@H]2/C=C(/C)C3=CC(=O)[C@@](C)(C[C@@H](OC(=O)/C(C)=C\C)C12)O3` (stereo not given in full), 29.3 µM; to `O=S1OC2(c3ccccc3-c3ccccc32)c2ccccc21` (stereo not given), more than 100 µM.

Another experiment concerns NCI-H522 lung. The experiment in a line: DTP human tumour cell line panel, 48 h.
For the molecule `COc1cc2ccc3c4cc(OC)c(OC(C)C)cc4cnc3c2cc1OC`, the total growth inhibition concentration (TGI) is more than 100 µM.
As to `C1C[OH+]CCNCC[OH+]CC[OH+]CCN1.[Cl-].[Pt+4]`, the GI50 was more than 100 µM and the TGI was more than 100 µM.
`CC(=O)c1sc(-c2nc(C)c(C(=O)/C=C\c3ccc(/C=C\C(=O)c4sc(-c5nc(C)c(C(C)=O)s5)nc4C)cc3)s2)nc1C` displayed a TGI of more than 100 µM.
Still for that read-out and setting: next, `Cc1ccc(C2(O)CC(c3ccc([N+](=O)[O-])o3)=NN2C(=O)COc2ccc(Cl)cc2)cc1` (stereo not given): 34.2 µM.
Same read-out and setting: next, `CC1=NN(C(=O)CC(=O)N(C(=O)c2ccccc2Cl)c2ccc(C)cc2)C(=O)C1N=Nc1ccc([N+](=O)[O-])cc1` (stereo not given): more than 100 µM.
On the same count and under the same terms, next, `COc1cccc(-n2c3nc(=O)n(C)c(=O)c-3nc3ccccc32)c1`: 97.5 µM.
With `CC(C)(C=O)CC(C#N)/C(=N\NC(N)=O)C(=O)Nc1ccccc1C(N)=O` (stereo not given), the TGI is more than 100 µM.
The same measure, in the same setting: to `Cc1cc(C)c(C2[C@H]3C(=O)N(c4ccc(Cc5ccc(N6C(=O)[C@@H]7ON(c8ccccc8)C(c8c(C)cc(C)cc8C)[C@@H]7C6=O)cc5)cc4)C(=O)[C@H]3ON2c2ccccc2)c(C)c1` (stereo not given in full) belongs more than 100 µM.
The same measure, in the same setting: next, `COC(=O)OCC1OC(N2C(=O)NC(=O)C(Br)C2N=[N+]=[N-])CC1OC(=O)OC` (stereo not given): more than 100 µM; `CC12CCCCC1(C)C2Sc1ccccc1` (stereo not given): more than 69.3 µM.
On the same count and under the same terms, next, `CCCCOC(=O)NC(=O)c1cn(CCCOC(=O)NCCCCCCNC(=O)OCCCn2cc(C(=O)NC(=O)OCCCC)c(=O)[nH]c2=O)c(=O)[nH]c1=O`: more than 100 µM.
Regarding `C[C@@]12CCCc3coc(c31)C(=O)c1cc3c(cc12)C(=O)C=CC3=O`, the GI50 was more than 1 µM; the concentration for total growth inhibition (TGI) is > 1 µM and 19.5 µM.

(Values after PubChem BioAssay (NCI).)
